A melting point compilation (Tetko et al.; mined from patent text by program, amines drawn as free bases though some values may be those of a salt)

melting point | SMILES
139 °C | COc1cc(N(C)c2nccc(-c3ccncc3)n2)cc(OC)c1OC
250 to 251 °C | N#Cc1cccc(C(=O)Nc2cccc(-c3cccc4c3/C(=C/c3ccc[nH]3)C(=O)N4)c2)c1
189 to 190 °C | COc1cc(C(=O)CCC(=O)c2cc(OC)c(OC)c(OC)c2)cc(I)c1O
124 to 125 °C | COc1cn(C(C)=O)c2ccc(F)cc12
184 to 187 °C | O=C1CCCCN1[C@@H]1c2cc(C(F)(F)F)ccc2OC(CF)(CF)[C@H]1O (relative stereo)
80.3 to 80.5 °C | CCCCCCc1ccc(-c2ncc(C#N)c(Cl)n2)cc1
128 to 130 °C | COc1cc(N(C)C)c(Cl)cc1C(=O)NCC1CN(CCCOc2ccc(Cl)cc2)CCO1 (stereo unspecified)
203 °C | CN1CC2c3cccn3Cc3ccc(Cl)cc3N2C(=O)C1=O (stereo unspecified)
233 to 234 °C | CN(C)C1CCN(c2cc3ccccc3c(=O)[nH]2)C1 (stereo unspecified)
223 to 224 °C | CC1=C(CC2=NCCN2)CCc2ccccc21
54 to 56 °C | CCCOc1ccc(O)cc1OC
209 to 210 °C | Nc1ccc(OC2CCN(c3ccncc3)CC2)cc1
85 to 87 °C | CCc1cc(Oc2ncc(C(F)(F)F)cc2Cl)nn1C(=O)NC
127 to 128 °C | CSCCCOc1nc(-c2ccc(F)cc2C)c2ccc(=O)n(-c3c(F)cccc3F)c2n1
193 to 194 °C | Nc1ncnc2c1c(-c1ccc(Oc3ccccc3)cc1)cn2C1CCOCC1
281 to 283 °C | Cc1nc(-c2ccc(Cl)cc2)c2nc(-c3ccccc3)cc-2[nH]1
140 to 142 °C | CC(=O)NC[C@H]1CN(c2ccc(N3CCC4(CC3)OCCO4)cc2)C(=O)O1
140 °C | C#Cc1cc(F)c(-n2c(=O)cc(C(F)(F)F)n(C)c2=O)cc1OCC
92 to 96 °C | O=C(Nc1ccccc1)OCc1ccccc1
150 to 151 °C | CN1CCN(C2=Nc3ccccc3Oc3sc(Br)cc32)CC1
59 to 63 °C | CC1(C)OC(=O)c2ccc(CO)cc21
125 to 127 °C | Cc1sc(N)c(C(=O)c2ccc(Cl)s2)c1C
124 to 128 °C | COc1ccc(C=CC(=O)Nc2ccncc2)c2c1OC1(CCCC1)C2
166 to 167 °C | C=CCOc1cccc(C(=O)O)c1C(=O)O
174 to 176 °C | Cc1cc(-c2cc(O)c(SCc3ccccc3)c(=O)o2)cc(C)c1O

melting point | SMILES
114 °C | Cc1ccc(-c2ncc(C)c(C)n2)cc1
244 to 245 °C | C/C(=C(\C#N)C(N)=S)N1CCc2ccccc2C1
172 to 174 °C | c1ccc2cc(CCNc3ncnc4ccccc34)ccc2c1
178 to 179 °C | Cc1nc2c(O[C@@H]3c4ccccc4C[C@H]3O)cccn2c1N=O (relative stereo)
89 to 90 °C | CCCCCCCCCCCCCCOc1cc(-c2ccccc2)c(OCC(=O)O)c(-c2ccccc2)c1
192 to 195 °C | C=CCc1c(-c2ccc(S(C)(=O)=O)cc2)cnn(CC(F)(F)F)c1=O
216 to 217 °C | O=C1Nc2ccc(F)cc2C(=O)N2CC[C@@H]12
169 to 172 °C | COC(=O)c1c2n(c(C)cc1=O)CCCC2
166 to 167 °C | CC(C)Oc1ccc(C2CCc3cccc(C(=O)O)c3N2)cc1 (stereo unspecified)
139 to 141 °C | CN1CCN(c2nn(S(=O)(=O)c3ccccc3)c3cc(Cl)ccc23)CC1
198 to 200 °C | COc1ccc(-c2c(C(=O)O)[nH]c3cc(OC)c(OC)cc23)cc1OC
192 °C | CNC(C)=C(C(C)=O)S(=O)(=O)NC(=O)Nc1nc(C)cc(C)n1
240 to 242 °C | Cc1cn(Cc2cc(C)c3c(c2)-c2[nH]nc(-c4ccsc4)c2C3)cn1
125 °C | Cc1nn(-c2cnccn2)c(-c2ccccc2)c1CC(=O)O
89 to 91 °C | COC(=O)c1ccc2c(c1)C(=O)C1(CC1)O2
232 to 237 °C | O=C(O)CN1C(=O)C(=CC=Cc2cccc(-c3ccccc3)c2)SC1=S
168 to 170 °C | CNC(=O)c1ccc(C)c(-n2c(C)cc(OCc3ccccc3CNC(=O)Nc3cc(C(C)(C)C)nn3-c3cccc(OCCO)c3)c(Cl)c2=O)c1
> 250 °C | O=C(O)c1ccc(OC(F)F)c2oc3ccncc3c12
123 to 124 °C | COP(=O)(OC)OCN1C(=O)NC(c2ccccc2)(c2ccccc2)C1=O
75 to 77 °C | CNC(=O)ON=C(Nc1ccc(C(F)(F)F)cc1)C1=NN(c2ccc(Cl)cc2)C(c2ccc(F)cc2)C1 (stereo unspecified)
235 °C | CCOC(=O)NNc1ccc(-c2ccc(C#N)cc2)nn1
182 to 184 °C | CSCc1cn(C)c2cc(C(F)(F)F)ccc2c1=O
146 to 148 °C | Cc1nc(-c2ccccc2)nc(-c2ccc([N+](=O)[O-])cc2)c1C(C)O (stereo unspecified)
75 to 77 °C | CC(C)(C)OC(=O)N1CC2CC(CN(CC(O)COc3ccc(C(C)(C)C)cc3)C2)C1 (stereo unspecified)
121 to 123 °C | CCn1c(COCc2ccccc2)nc(C(C)C)c1Sc1cccc([N+](=O)[O-])c1

melting point | SMILES
119 to 120 °C | N#Cc1cc(C#N)cc(CO)c1
71 to 72 °C | CCc1ncnc(N[C@H]2CC[C@@H](CO)CC2)c1Cl
289 to 291 °C | Cc1c(S(=O)(=O)Nc2ccc(-c3nc(C(=O)O)co3)cc2S(C)(=O)=O)sc2ccc(F)cc12
59 to 61 °C | C[C@@]1(F)[C@H](OC(=O)c2ccccc2)[C@@H](COC(=O)c2ccccc2)O[C@@H]1Br
31 to 33 °C | CCCC(CNc1nc(C)c(OC)c(C)n1)c1ccccc1 (stereo unspecified)
204 to 206 °C | CSc1nc(-c2ccc(=O)n(C)n2)c(-c2ccccc2)nc1N
245 to 249 °C | CN(Cc1ccc(NC(=O)C2=Cc3cc(-c4ccc5c(c4)CCCO5)ccc3S(=O)(=O)CC2)cc1)C1CCOCC1
147 to 148 °C | Cc1ccccc1-c1nc(-c2cccc(Cl)c2)n[nH]1
144 to 146 °C | COc1ccc(C#CC(C)N(O)C(N)=O)cc1 (stereo unspecified)
> 300 °C | Cc1cccc(NC(=O)Nc2c(-c3ccccc3)c3cc(Cl)ccc3c(=O)n2C)c1
60 to 62 °C | CCN(CCCCCN(CCCCCN(CC)S(=O)(=O)c1c(C)cc(C)cc1C)S(=O)(=O)c1c(C)cc(C)cc1C)S(=O)(=O)c1c(C)cc(C)cc1C
204 °C | Cc1cc(C#N)cc(C(=O)Nc2ccc(F)c(Cl)c2)n1
175 °C | COc1ccc(CN(C)CCOc2ccc(NC(=O)c3cccc4c(=O)cc(-c5ccccc5)[nH]c34)cc2)cc1OC
88 to 89 °C | Cc1ccc(C)c(C(CO)c2ccc(C(C)C)cc2)c1O (stereo unspecified)
65 to 66 °C | COCCC(=O)Nc1ccc(CCCc2ccccc2OCc2ccccc2)cc1
94 to 95 °C | N#Cc1ccc(OCC(O)CN2CCSCC2)cc1 (stereo unspecified)
73.5 to 74 °C | O=C(O)CCCCCCCCCCCCC(=O)OCc1ccccc1
159 to 161 °C | Cc1ccc2[nH]c(SCC(F)(F)F)nc2c1
205 to 207 °C | CCOC(=O)c1cc(-c2csc(N)n2)[nH]n1
107 °C | CC(C)[Si]1(C(C)C)C([Si](C)(C)C)=C(c2ccccc2)C(c2ccccc2)=C1[Si](C)(C)C
78 to 81 °C | CC1(C)c2cc(O)ccc2OC1O (stereo unspecified)
130 °C | Cn1c(C(F)(F)F)cc(C#N)c1-c1ccc(Cl)cc1
163 to 167 °C | Cc1oncc1C(=O)Nc1ccc(-n2nc(C(F)(F)F)cc2C(F)(F)F)cc1
118 to 127 °C | CCCCC(=O)NC(C(=O)OCc1ccccc1)C(C)C (stereo unspecified)
134 °C | COc1ccc(N(c2ccc(-c3ccc(N(c4ccc(OC)cc4)c4cccc(C(F)(F)F)c4)cc3)cc2)c2cccc(C(F)(F)F)c2)cc1

melting point | SMILES
245 to 246 °C | CC(=O)N1CCN(c2ccc(Nc3nccc(-c4sc(Nc5ccccc5)nc4C)n3)cc2)CC1
158 to 161 °C | O=C(O)COc1ccc(OC(F)(F)F)cc1C(=S)NCc1cccc([N+](=O)[O-])c1
218 to 219 °C | N#Cc1ccc(-c2cn3cc(Br)ccc3n2)cc1
222 to 224 °C | O=c1[nH]cc(C=Cc2cccnc2)c2ccccc12
172 to 174 °C | CC(Oc1ccccc1)(c1ccc(O)cc1)c1ccc(O)cc1
206 °C | CCCn1c(=S)sc2c(=N)n(NC(=O)c3ccco3)cnc21
140 to 141 °C | O=C(CCC(=O)c1cccs1)Nc1cccc2cc(-c3nccs3)[nH]c12
247 to 252 °C | Cc1ccc2c(c1)c(=O)c1c(cnn1C)n2CC(N)=O
166 to 168 °C | Cc1nc(NC(CO)C(C)C)c2c(n1)c(C)nn2C (stereo unspecified)
68 to 74 °C | COc1cc(Cl)nc(S(C)(=O)=O)n1
82 °C | CCc1noc(=O)n1C(=O)NC
238 °C | N#Cc1ccc(-c2ccncc2OC2SCC(O)C(O)C2O)cc1 (stereo unspecified)
178 to 179 °C | CCN1CCN(c2nc(-c3ccccc3)nc3sc(C#N)c(C)c23)CC1
184 to 186 °C | CCOC(=O)c1ccc(NC(=O)CC2c3ccccc3Sc3ccccc32)cc1
224 °C | Cn1cc(C=O)c2c3sc4ccccc4c3ccc21
114 to 116 °C | O=C1c2ccccc2C(=O)N1[C@@H]1C=CC[C@H]1O (relative stereo)
103 to 107 °C | CN(C)CCc1c[nH]c2cc(N(S(=O)(=O)c3cc(Cl)cc(Cl)c3)S(=O)(=O)c3cc(Cl)cc(Cl)c3)ccc12
192 to 193 °C | CC(=O)SCC1CCCCCCCSC[C@@H](C(=O)OCc2ccccc2)NC1=O (stereo partly specified)
103 to 104 °C | Cc1nn(-c2ccc(C(F)(F)F)cn2)cc1CCCO
231 to 235 °C | O=C(c1ccc(F)cc1)C1CCN(CCn2c(=O)[nH]c3sccc3c2=O)CC1
94 to 95 °C | COCCNC(=O)c1cccc(-c2cccc3cc(Cc4cccc(C(F)(F)F)c4)sc23)c1F
181 to 182 °C | COC(=O)c1ccc(OCC(N)=O)c(N)c1
232 to 235 °C | CCCCn1nc2c(N)nc3ncccc3c2c1CC(C)(C)O

SMILES | melting point
CCN(CC)C(=O)c1ccc(C(=C2CC3CCC(C2)N3C)c2ccccc2)cc1 | 145 to 147 °C
COc1cccc2c1Sc1ccccc1C21CCN(C#N)CC1 | 145 to 146 °C
COc1cc(C2C3=C(COC3=O)N(Cc3ccc([N+](=O)[O-])cc3)c3cc4c(cc32)OCO4)cc(OC)c1OC (stereo unspecified) | 240 °C
